Assay [1] relates to Pseudomonas aeruginosa AmpC (second AmpC column). Kind of assay: MIC alone against β-lactamase producing strain. The assay is classed as cell-based. Conditions: substance alone, column 4. Here is the method:
(§1) Minimum Inhibitory Concentrations (MICs) were determined by the broth microdilution method in accordance with the Clinical and Laboratory Standards Institute (CLSI) guidelines. Clinical Laboratory Standards Institute: Methods for Dilution Antimicrobial Susceptability Tests for Bacteria That Grow Aerobically (8th Ed. (2009)) M07-A8. In brief, organism suspensions were adjusted to a 0.5 McFarland standard and further diluted to yield a final inoculum between 3×10^5 and 7×10^5 colony-forming units (CFU)/mL. Bacterial inocula were made in sterile, cation adjusted Mueller-Hinton Broth (Beckton Dickinson) for either Escherichia coli, Klebsiella pneumoniae, or Pseudomonas aeruginosa. Haemophilus influenzae bacterial inocula were made in sterile, cation adjusted Mueller-Hinton Broth (Beckton Dickinson) containing 0.5% yeast extract (Beckton Dickinson) plus 15 μg/ml Bovine Hematin (Sigma) and 15 μg/ml β-nicotinamide adenine dinucleotide (Sigma). Bacterial inocula were made in sterile, cation adjusted Mueller-Hinton Broth (Beckton Dickinson) for Staphylococcus aureus or sterile, cation adjusted Mueller-Hinton Broth containing 2.5% lysed horse blood (Hema Resource & Supply Inc.) for Streptococcus pneumoniae and Streptococcus pyogenes. An inoculum volume of 100 uL was added to wells (using a Tecan EVO robot) containing 2 uL of DMSO containing 2-fold serial dilutions of drug. […] All inoculated microdilution trays were incubated in ambient air at 35° C. for 18-24 hours. Following incubation, the lowest concentration of the drug that prevented visible growth as read at OD600 nm was recorded as the MIC. Performance of the assay was monitored by the use of laboratory quality-control strains and commercially available control compounds with defined MIC spectrums, in accordance with CLSI guidelines.

In assay [2] the test system is Klebsiella pneumoniae KPC2. Kind of assay: MIC alone against β-lactamase producing strain. The assay is classed as cell-based. The note with it: Klebsiella pneumoniae, KPC2; substance alone. The method, then: as §1
The subject of assay [3] is Pseudomonas aeruginosa PER-1, OXA-10. In words: MIC alone against β-lactamase producing strain. Conditions: Pseudomonas aeruginosa; substance alone. The assay is classed as cell-based. Here is the method:
as §1

Assay [4] concerns Pseudomonas aeruginosa AmpC (first AmpC column). Kind of assay: MIC alone against β-lactamase producing strain. The assay is classed as cell-based. The note with it: substance alone, column 2. Here is the method: as §1
For assay [5], the system named is S. aureus (MSSA). Kind of assay: MIC, broth microdilution (CLSI). The assay is classed as cell-based, Staphylococcus aureus. The note with it: Staphylococcus aureus, MSSA; compound alone. Here is the method: as §1
On the technique in general: Dilution methods test growth across graded concentrations, often in twofold steps.

The test system of assay [6] is S. aureus (MRSA). In words: MIC, broth microdilution (CLSI). The assay is classed as cell-based, Staphylococcus aureus. Conditions: Staphylococcus aureus, MRSA; compound alone. The method, then:
as §1

Assay [7] relates to Pseudomonas aeruginosa. In words: MIC, broth microdilution (CLSI). The note with it: Pseudomonas aeruginosa; compound alone; read-out: MIC P. aeruginosa. The assay is classed as cell-based. The method, then:
as §1

For assay [8], the system named is Streptococcus pneumoniae. In words: MIC, broth microdilution (CLSI). The assay is classed as cell-based. Conditions: Streptococcus pneumoniae; compound alone; read-out: MIC S. pneumon. Here is the method: as §1
Assay [9] concerns Escherichia coli. Kind of assay: MIC, broth microdilution (CLSI). The assay is classed as cell-based. Conditions: Escherichia coli; compound alone. The method, then:
as §1

Assay [10] deals with Klebsiella pneumoniae. Kind of assay: MIC, broth microdilution (CLSI). The assay is classed as cell-based. Conditions: Klebsiella pneumoniae; compound alone; read-out: MIC K. pneumon. Here is the method:
as §1

The subject of assay [11] is Streptococcus pyogenes. In words: MIC, broth microdilution (CLSI). The assay is classed as cell-based. The note with it: Streptococcus pyogenes; compound alone; read-out: MIC S. pyogenes. Here is the method:
as §1

The subject of assay [12] is Haemophilus influenzae. Kind of assay: MIC, broth microdilution (CLSI). Conditions: Haemophilus influenzae; compound alone; read-out: MIC H. influenzae. The assay is classed as cell-based. The method, then: as §1

In brackets after ≈: the same amount, converted by molar mass. Where a name gives a salt, the structure may show the parent alone.

With `CC(C)(O/N=C(\C(=O)N[C@@H]1C(=O)N2C(C(=O)[O-])=C(C[n+]3ccccc3)CS[C@H]12)c1csc(N)n1)C(=O)O` [Ceftazidime, ceftazidime, reference compound], the MIC worked out at 32 µg/mL (≈ 58.5 µM) in assay [1], 256 µg/mL (≈ 468 µM) in [2], 256 µg/mL (≈ 468 µM) in [3] and 128 µg/mL (≈ 234 µM) in [4].

Turning to `CC(C)C1=C[C@@H](C#N)N2C[C@@H]1N(OS(=O)(=O)O)C2=O.[Na]` [Example 5, (2S,5R)-2-cyano-4-isopropyl-7-oxo-1,6-diazabicyclo[3.2.1]oct-3-en-6-yl hydrogen sulfate sodium salt], the MIC is more than 200 µg/mL in assay [5]; more than 200 µg/mL in assay [6]; more than 200 µg/mL in assay [7]; 100 µg/mL in [8]; more than 200 µg/mL in assay [9]; more than 200 µg/mL in assay [10]. In addition, the MIC in assay [11] was found to be 50 µg/mL; in [12], 100 µg/mL.

As for `CC1=C[C@@H](C(=O)NC2CCNCC2)N2C[C@@H]1N(OS(=O)(=O)O)C2=O` [Example 3, (2S,5R)-4-methyl-7-oxo-2-(piperidinium-4-ylcarbamoyl)-1,6-diazabicyclo[3.2.1]oct-3-en-6-yl sulfate], the MIC in assay [5] is more than 200 µg/mL; in assay [6], more than 200 µg/mL; in assay [7], more than 200 µg/mL; in assay [8], 50 µg/mL; in assay [9] it was more than 200 µg/mL; in assay [10] it was more than 200 µg/mL. Moreover, the figures for the MIC in [11] and in assay [12] were 50 µg/mL and 3.13 µg/mL, respectively.

As to `COCC1=C[C@@H](C(N)=O)N2C[C@@H]1N(OS(=O)(=O)[O-])C2=O.[Na+]` [Example 9, (2S,5R)-2-carbamoyl-4-(methoxymethyl)-7-oxo-1,6-diazabicyclo[3.2.1]oct-3-en-6-yl hydrogen sulfate sodium salt], the MIC in assay [1], in assay [2], in assay [3] and in [4] was more than 16 µg/mL in each case.

As to `CC(C)(C)OC(=O)N1CCC(NC(=O)[C@@H]2C=C[C@@H]3CN2C(=O)N3OS(=O)(=O)O)CC1` [Example 14, (2S,5R)-2-(1-(tert-butoxycarbonyl)piperidin-4-ylcarbamoyl)-7-oxo-1,6-diazabicyclo[3.2.1]oct-3-en-6-yl sulfate sodium salt], the MIC was 100 µg/mL in assay [5]; more than 200 µg/mL in assay [6]; more than 200 µg/mL in assay [7]; 100 µg/mL in assay [8]; more than 200 µg/mL in [9]; more than 200 µg/mL in [10]. Besides, the MIC amounted to 100 µg/mL in [11] and 12.5 µg/mL in assay [12].

As for `CC1=C[C@@H](C(=O)NCc2cc(=O)c(O)c[nH]2)N2C[C@@H]1N(OS(=O)(=O)O)C2=O` [Example 8, (2S,5R)-2-((5-hydroxy-4-oxo-1,4-dihydropyridin-2-yl)methylcarbamoyl)-4-methyl-7-oxo-1,6-diazabicyclo[3.2.1]oct-3-en-6-yl hydrogen sulfate sodium salt], the MIC in assay [1], in assay [2], in [3] and in [4] was more than 16 µg/mL each time.

For the molecule `C=C(C)C1=C[C@@H](COC)N2C[C@@H]1N(OS(=O)(=O)O)C2=O.[Na]` [Example 7, (2S,5R)-2-(methoxymethyl)-7-oxo-4-(prop-1-en-2-yl)-1,6-diazabicyclo[3.2.1]oct-3-en-6-yl hydrogen sulfate sodium salt], the MIC in [5], in [6], in assay [7], in assay [8], in assay [9] and in [10] was more than 200 µg/mL in each case. In addition, the MIC in assay [11] and in [12] was more than 200 µg/mL each time.

(Values after patent publication US9623014B2 (Entasis Therapeutics Limited, priority 2012, dated 2017).)
